pEC50: −log10 of the molar value.

The record followed here is publication PMC4629130, “Human Odorant Reception in the Common Bed Bug, Cimex lectularius” (Scientific Reports, 2015).

In one assay the target is T1, ClOr1/Orco (Cimex lectularius, UniProt A0A8I6SE58).
T1 construct: entire coding regions of ClOr1 and ClOrco in pT7Ts, cRNAs co-injected into Xenopus oocytes; heteromeric receptor channel; with Odorant receptor coreceptor
Description: two-electrode voltage clamp, Xenopus oocytes. In kind it is cell-based.

The target of the next assay is T2, ClOr2/Orco (Cimex lectularius, UniProt A0A8I6SBL2).
T2 construct: entire coding regions of ClOr2 and ClOrco in pT7Ts, cRNAs co-injected into Xenopus oocytes; heteromeric receptor channel; clusters with Rhodnius RpOr105; with Odorant receptor coreceptor
T2 sequence (A0A8I6SBL2 1-382): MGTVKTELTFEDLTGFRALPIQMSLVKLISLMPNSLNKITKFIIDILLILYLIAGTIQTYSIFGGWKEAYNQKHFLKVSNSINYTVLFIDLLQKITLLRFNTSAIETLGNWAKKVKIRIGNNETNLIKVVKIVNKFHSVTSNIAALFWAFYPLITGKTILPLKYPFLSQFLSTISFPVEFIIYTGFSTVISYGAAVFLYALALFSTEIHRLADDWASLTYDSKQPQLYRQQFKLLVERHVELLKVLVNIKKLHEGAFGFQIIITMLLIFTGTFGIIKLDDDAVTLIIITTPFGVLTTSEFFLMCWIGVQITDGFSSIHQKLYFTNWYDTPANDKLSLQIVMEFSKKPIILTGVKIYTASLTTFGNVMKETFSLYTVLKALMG
T2 sequence (A0A0A0U7J0 1-451 partner): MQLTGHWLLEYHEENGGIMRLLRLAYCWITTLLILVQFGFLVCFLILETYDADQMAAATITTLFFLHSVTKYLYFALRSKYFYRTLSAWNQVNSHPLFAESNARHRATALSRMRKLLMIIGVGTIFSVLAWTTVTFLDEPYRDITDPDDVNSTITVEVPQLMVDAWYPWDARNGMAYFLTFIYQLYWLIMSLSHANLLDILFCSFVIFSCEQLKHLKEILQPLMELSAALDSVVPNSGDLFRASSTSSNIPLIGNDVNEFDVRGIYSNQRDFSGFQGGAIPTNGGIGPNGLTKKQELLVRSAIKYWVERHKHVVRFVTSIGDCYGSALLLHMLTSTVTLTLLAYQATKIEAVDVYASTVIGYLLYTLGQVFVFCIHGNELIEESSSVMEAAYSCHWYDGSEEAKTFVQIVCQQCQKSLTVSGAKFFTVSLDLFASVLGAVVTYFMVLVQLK
The assay can be described thus: two-electrode voltage clamp, Xenopus oocytes. Format: cell-based.

T1 sequence (A0A8I6SE58 1-379): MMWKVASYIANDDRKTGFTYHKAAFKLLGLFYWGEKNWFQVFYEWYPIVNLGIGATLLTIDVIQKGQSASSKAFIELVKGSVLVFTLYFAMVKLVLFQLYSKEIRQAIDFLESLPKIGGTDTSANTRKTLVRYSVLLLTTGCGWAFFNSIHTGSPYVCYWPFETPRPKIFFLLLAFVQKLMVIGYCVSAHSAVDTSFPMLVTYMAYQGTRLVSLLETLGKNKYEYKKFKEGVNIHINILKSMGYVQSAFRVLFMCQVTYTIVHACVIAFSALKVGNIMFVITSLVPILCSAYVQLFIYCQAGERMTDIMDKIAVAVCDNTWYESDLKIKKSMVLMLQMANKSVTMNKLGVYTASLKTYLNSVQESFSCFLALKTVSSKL
T1 sequence (A0A0A0U7J0 1-451 partner): as the sequence (A0A0A0U7J0 1-451 partner) above

Take `CCCCCCCCC=O` [nonanal]: the pEC50 on ClOr1/Orco is 6.29.

As for `CCCCCCCC=O` [octanal], the pEC50 at ClOr1/Orco is 5.47. Regarding `CCCCCCCCCC=O` [decanal], on ClOr2/Orco, the negative logarithm of the EC50 (pEC50) was 5.19.
